{
  "source": "patent US9457008B2",
  "about": "“Joint product comprising synephrine and topiramate” (Institute of Pharmacology and Toxicology Academy of …, priority 2012, dated 2016)",
  "assay": "Effects of different dissolution media on release rate of sustained-release pellet of topiramate",
  "type": "physicochemical",
  "settings": "0.1 mol/L HCl (pH1.2), 37° C.",
  "description": "In order to verify whether acidic, basic solvent media would influence the release rate of the sustained-release pellets of the present invention, 0.1 mol/L HCl (pH1.2) was prepared as artificial gastric fluid, […] phosphate buffer (pH6.8) was prepared as artificial intestinal fluid, and these media and water (500 ml) were used as release media, rotation speed was 100 rpm, 37° C. Samples (5 ml, supplemented with equivalent volume of media at the meantime) were taken at 1, 2, 4, 8, 12, 16, 20, 24 h, filtrated, and the subsequent filtrates were used as test solutions. High performance liquid chromatography (Appendix V D, Part II of Chinese Pharmacopoeia, 2010 Edition) was used, octylsilane-bonded silica gel was used as packing agent, 50% methanol was mobile phase, differential refractive detector was used, flow rate was 1.5 ml per minute. 200 μl of test solution was taken, injected in liquid chromatograph, the peak area of topiramate as main drug was recorded; topiramate was separately taken as control sample and measured by the same method, and accumulative release percentages of drug at different time points were calculated by external standard method. The release profile of sample of Batch 1 in Example 16 (2) in the above media were drawn, and the results were shown in FIG. 4.",
  "data": [
    {"compound": "CC1(C)O[C@@H]2[C@@H](CO[C@@]3(COS(N)(=O)=O)OC(C)(C)O[C@@H]23)O1", "note": "[topiramate, 2,3,4,5-bis-O-(1-methylethylene)-β-D-fructopyranose sulfamate]", "values": [
      {"measurement": "stability in pH1.2 artificial gastric fluid", "result": "unstable"}
    ]}
  ]
}
